# Test system: HT-29
# Assay: Antiproliferative activity against human HT29 cell line
# Assay type: functional, cell-based
# Settings: Homo sapiens, HT-29; read-out: IC50; call rule not given here
row,SMILES,IC50 [µM]
1,COC(=O)C[C@H]1[C@]2(C)C3=C(C)[C@H](c4ccoc4)C[C@H]3O[C@@H]2[C@H](O)[C@@H]2[C@]1(C)C(=O)C=C[C@@]2(C)C(=O)NC(C)c1ccccc1 (stereo not given in full),47.2
2,COC(=O)C[C@H]1[C@]2(C)C3=C(C)[C@H](c4ccoc4)C[C@H]3O[C@@H]2[C@H](O)[C@@H]2[C@]1(C)C(=O)C=C[C@@]2(C)C(=O)N1CCCCC1,91.5

# The next compounds have a lower IC50 than those just listed; values first:
row,IC50 [µM],SMILES
1,3.38,COC(=O)C[C@H]1[C@]2(C)C3=C(C)[C@H](c4ccoc4)C[C@H]3O[C@@H]2[C@H](O)[C@@H]2[C@]1(C)C(=O)C=C[C@@]2(C)C(=O)N1CCOCC1
2,43.2,COC(=O)C[C@H]1[C@]2(C)C3=C(C)[C@H](c4ccoc4)C[C@H]3O[C@@H]2[C@H](O)[C@@H]2[C@]1(C)C(=O)C=C[C@@]2(C)C(=O)NCc1ccccc1
3,8.62,COC(=O)C[C@H]1[C@]2(C)C3=C(C)[C@H](c4ccoc4)C[C@H]3O[C@@H]2[C@H](O)[C@@H]2[C@]1(C)C(=O)C=C[C@@]2(C)C(=O)NC(C(=O)OC)c1ccccc1 (stereo not given in full)

# Test system: SW-60
# Assay: Antiproliferative activity against […]
# Assay type: functional, cell-based
# Settings: Homo sapiens, SW-60; read-out: IC50
row,IC50 [µM],SMILES
1,5.72,COC(=O)C[C@H]1[C@]2(C)C3=C(C)[C@H](c4ccoc4)C[C@H]3O[C@@H]2[C@H](O)[C@@H]2[C@]1(C)C(=O)C=C[C@@]2(C)C(=O)N1CCOCC1

# Same assay, conditions: sw-60
row,SMILES,IC50
1,COC(=O)C[C@H]1[C@]2(C)C3=C(C)[C@H](c4ccoc4)C[C@H]3O[C@@H]2[C@H](O)[C@@H]2[C@]1(C)C(=O)C=C[C@@]2(C)C(=O)NC(C)c1ccccc1 (stereo not given in full),Not Active
2,COC(=O)C[C@H]1[C@]2(C)C3=C(C)[C@H](c4ccoc4)C[C@H]3O[C@@H]2[C@H](O)[C@@H]2[C@]1(C)C(=O)C=C[C@@]2(C)C(=O)N1CCCCC1,Not Active

# Continued, values first:
row,IC50,SMILES
1,Not Active,COC(=O)C[C@H]1[C@]2(C)C3=C(C)[C@H](c4ccoc4)C[C@H]3O[C@@H]2[C@H](O)[C@@H]2[C@]1(C)C(=O)C=C[C@@]2(C)C(=O)NCc1ccccc1
2,Not Active,COC(=O)C[C@H]1[C@]2(C)C3=C(C)[C@H](c4ccoc4)C[C@H]3O[C@@H]2[C@H](O)[C@@H]2[C@]1(C)C(=O)C=C[C@@]2(C)C(=O)NC(C(=O)OC)c1ccccc1 (stereo not given in full)

# Test system: HOP-62
# Assay: Antiproliferative activity against human HOP62 cell line
# Assay type: functional, cell-based
# Settings: Homo sapiens, HOP-62; read-out: IC50
row,SMILES,IC50 [µM]
1,COC(=O)C[C@H]1[C@]2(C)C3=C(C)[C@H](c4ccoc4)C[C@H]3O[C@@H]2[C@H](O)[C@@H]2[C@]1(C)C(=O)C=C[C@@]2(C)C(=O)NCc1ccccc1,26.3
2,COC(=O)C[C@H]1[C@]2(C)C3=C(C)[C@H](c4ccoc4)C[C@H]3O[C@@H]2[C@H](O)[C@@H]2[C@]1(C)C(=O)C=C[C@@]2(C)C(=O)NC(C(=O)OC)c1ccccc1 (stereo not given in full),13.5

# Same assay, conditions: hop-62
row,SMILES,IC50
1,COC(=O)C[C@H]1[C@]2(C)C3=C(C)[C@H](c4ccoc4)C[C@H]3O[C@@H]2[C@H](O)[C@@H]2[C@]1(C)C(=O)C=C[C@@]2(C)C(=O)NC(C)c1ccccc1 (stereo not given in full),Not Active
2,COC(=O)C[C@H]1[C@]2(C)C3=C(C)[C@H](c4ccoc4)C[C@H]3O[C@@H]2[C@H](O)[C@@H]2[C@]1(C)C(=O)C=C[C@@]2(C)C(=O)N1CCOCC1,Not Active
3,COC(=O)C[C@H]1[C@]2(C)C3=C(C)[C@H](c4ccoc4)C[C@H]3O[C@@H]2[C@H](O)[C@@H]2[C@]1(C)C(=O)C=C[C@@]2(C)C(=O)N1CCCCC1,Not Active

# Test system: A549
# Assay: Antiproliferative activity against human A549 cell line
# Assay type: functional, cell-based
# Settings: Homo sapiens, A549; read-out: IC50
row,IC50 [µM],SMILES
1,78.3,COC(=O)C[C@H]1[C@]2(C)C3=C(C)[C@H](c4ccoc4)C[C@H]3O[C@@H]2[C@H](O)[C@@H]2[C@]1(C)C(=O)C=C[C@@]2(C)C(=O)N1CCCCC1

# Same assay, conditions: a549
row,IC50,SMILES
1,Not Active,COC(=O)C[C@H]1[C@]2(C)C3=C(C)[C@H](c4ccoc4)C[C@H]3O[C@@H]2[C@H](O)[C@@H]2[C@]1(C)C(=O)C=C[C@@]2(C)C(=O)NC(C)c1ccccc1 (stereo not given in full)
2,Not Active,COC(=O)C[C@H]1[C@]2(C)C3=C(C)[C@H](c4ccoc4)C[C@H]3O[C@@H]2[C@H](O)[C@@H]2[C@]1(C)C(=O)C=C[C@@]2(C)C(=O)N1CCOCC1
3,Not Active,COC(=O)C[C@H]1[C@]2(C)C3=C(C)[C@H](c4ccoc4)C[C@H]3O[C@@H]2[C@H](O)[C@@H]2[C@]1(C)C(=O)C=C[C@@]2(C)C(=O)NCc1ccccc1
4,Not Active,COC(=O)C[C@H]1[C@]2(C)C3=C(C)[C@H](c4ccoc4)C[C@H]3O[C@@H]2[C@H](O)[C@@H]2[C@]1(C)C(=O)C=C[C@@]2(C)C(=O)NC(C(=O)OC)c1ccccc1 (stereo not given in full)

# Test system: PC-3
# Assay: Antiproliferative activity against human PC3 cell line
# Assay type: functional, cell-based
# Settings: Homo sapiens, PC-3; read-out: IC50
row,SMILES,IC50 [µM]
1,COC(=O)C[C@H]1[C@]2(C)C3=C(C)[C@H](c4ccoc4)C[C@H]3O[C@@H]2[C@H](O)[C@@H]2[C@]1(C)C(=O)C=C[C@@]2(C)C(=O)NC(C)c1ccccc1 (stereo not given in full),43.1
2,COC(=O)C[C@H]1[C@]2(C)C3=C(C)[C@H](c4ccoc4)C[C@H]3O[C@@H]2[C@H](O)[C@@H]2[C@]1(C)C(=O)C=C[C@@]2(C)C(=O)N1CCCCC1,48.2

# Now from value to compound:
row,IC50 [µM],SMILES
1,2.26,COC(=O)C[C@H]1[C@]2(C)C3=C(C)[C@H](c4ccoc4)C[C@H]3O[C@@H]2[C@H](O)[C@@H]2[C@]1(C)C(=O)C=C[C@@]2(C)C(=O)N1CCOCC1
2,8.11,COC(=O)C[C@H]1[C@]2(C)C3=C(C)[C@H](c4ccoc4)C[C@H]3O[C@@H]2[C@H](O)[C@@H]2[C@]1(C)C(=O)C=C[C@@]2(C)C(=O)NC(C(=O)OC)c1ccccc1 (stereo not given in full)

# Same assay, conditions: pc-3
row,IC50,SMILES
1,Not Active,COC(=O)C[C@H]1[C@]2(C)C3=C(C)[C@H](c4ccoc4)C[C@H]3O[C@@H]2[C@H](O)[C@@H]2[C@]1(C)C(=O)C=C[C@@]2(C)C(=O)NCc1ccccc1

# Test system: OVCAR-5
# Assay: Antiproliferative activity against human OVCAR5 cell line
# Assay type: functional, cell-based
# Settings: Homo sapiens, OVCAR-5; read-out: IC50
row,SMILES,IC50 [µM]
1,COC(=O)C[C@H]1[C@]2(C)C3=C(C)[C@H](c4ccoc4)C[C@H]3O[C@@H]2[C@H](O)[C@@H]2[C@]1(C)C(=O)C=C[C@@]2(C)C(=O)NC(C)c1ccccc1 (stereo not given in full),89.2
2,COC(=O)C[C@H]1[C@]2(C)C3=C(C)[C@H](c4ccoc4)C[C@H]3O[C@@H]2[C@H](O)[C@@H]2[C@]1(C)C(=O)C=C[C@@]2(C)C(=O)N1CCCCC1,62.3

# Further lines, results first:
row,IC50 [µM],SMILES
1,2.11,COC(=O)C[C@H]1[C@]2(C)C3=C(C)[C@H](c4ccoc4)C[C@H]3O[C@@H]2[C@H](O)[C@@H]2[C@]1(C)C(=O)C=C[C@@]2(C)C(=O)N1CCOCC1
2,82.4,COC(=O)C[C@H]1[C@]2(C)C3=C(C)[C@H](c4ccoc4)C[C@H]3O[C@@H]2[C@H](O)[C@@H]2[C@]1(C)C(=O)C=C[C@@]2(C)C(=O)NCc1ccccc1

# Same assay, conditions: ovcar-5
row,IC50,SMILES
1,Not Active,COC(=O)C[C@H]1[C@]2(C)C3=C(C)[C@H](c4ccoc4)C[C@H]3O[C@@H]2[C@H](O)[C@@H]2[C@]1(C)C(=O)C=C[C@@]2(C)C(=O)NC(C(=O)OC)c1ccccc1 (stereo not given in full)
